Measured values as given in paper PMC6145453 (ACS infectious diseases, 2018).
Values joined by “and” are separate entries in the source; they are usually repeats but may differ in a detail not shown here. Equal entries are not always repeated. “Also recorded” adds a separate entry of the source.

How the values were obtained:
influenza A/WSN/33 virus [1] = assay: microbe, parasite or virus in culture; assay type: cell-based, influenza A virus (H1N1); conditions: for IC50: Influenza A virus, H1N1|WSN, A549, 24 h
influenza A/WSN/33 virus [2] = assay: microbe, parasite or virus in culture; assay type: cell-based, influenza A virus (H1N1); conditions: MDCK
[3] = tested on: A/California/04/2009 (H1N1); assay: microbe, parasite or virus in culture; assay type: cell-based, influenza A virus; conditions: for IC50: Influenza A virus, H1N1, A549
[4] = tested on: A/Puerto Rico/8/1934 (H1N1); assay: microbe, parasite or virus in culture; assay type: cell-based, influenza A virus; conditions: for IC50: Influenza A virus, H1N1, A549, 24 h
[5] = tested on: A/Brisbane/59/2007-S (oseltamivir sensitive); assay: microbe, parasite or virus in culture; assay type: cell-based; conditions: Influenza A virus, H1N1, A549, 24 h
[6] = tested on: A/Panama/2007/1999 (H3N2); assay: microbe, parasite or virus in culture; assay type: cell-based, influenza A virus; conditions: for IC50: Influenza A virus, H3N2, A549
A/Wyoming/03/2003 (H3N2) = assay: microbe, parasite or virus in culture; assay type: cell-based; conditions: Influenza A virus, H3N2, A549, 24 h
[7] = tested on: A/Vietnam/1203/2004 (H5N1); assay: microbe, parasite or virus in culture; assay type: cell-based, influenza A virus; conditions: for IC50: Influenza A virus, H5N1, A549
B/Yamagata/16/1988 = assay: microbe, parasite or virus in culture; assay type: cell-based; conditions: Influenza B virus, MDCK
B/Brisbane/60/2008 = assay: microbe, parasite or virus in culture; assay type: cell-based; conditions: Influenza B virus, MDCK, 24 h
[8] = tested on: A/Puerto Rico/8/1934 (H1N1) virus expressing GFP; assay: microbe, parasite or virus in culture; assay type: cell-based, influenza A virus; conditions: for IC50: Influenza A virus, H1N1, read-out: PRS IC50
[9] = tested on: A/Vietnam/1203/2004 (H5N1-Halo) GFP virus; assay: microbe, parasite or virus in culture; assay type: cell-based, influenza A virus; conditions: for IC50: Influenza A virus, H5N1, read-out: H5N1 IC50
influenza A/WSN/33 virus [10] = assay type: cell-based
[11] = tested on: purified recombinant wild-type WSN NP protein; assay type: biochemical, influenza A/WSN/33 virus
[12] = tested on: NP (A/WSN/33 infected A549 cells); assay type: cell-based, influenza A virus
[13] = tested on: NP (A/WSN/33 infected A549 cells); assay type: cell-based, influenza A virus; remark: listed apart in the source
[14] = tested on: viral mRNA, vRNA and protein expression, A/WSN/33; assay type: cell-based, influenza A virus
[15] = tested on: viral mRNA, vRNA and protein expression, rY40F-WSN virus; assay type: cell-based, influenza A virus
PR8-GFP virus = assay type: cell-based, influenza A virus
[16] = tested on: vesicular stomatitis virus (VSV); assay type: cell-based
in vitro [17] = conditions: human
in vitro [18] = conditions: dog

| SMILES | IC50 (influenza A/WSN/33 virus [1]) | IC50 [3] | IC50 [4] | IC50 [5] | IC50 [6] | IC50 (A/Wyoming/03/2003 (H3N2)) | IC50 [7] | IC50 (B/Yamagata/16/1988) | IC50 (B/Brisbane/60/2008) | IC50 [8] | IC50 [9] | effect on NP oligomer ladder / low molecular weight band [11] | effect on low molecular weight NP band [11] | effect on NP oligomer size [12] | effect on low molecular weight NP pool [12] | NP localization [13] | time of appearance of NP aggregates [13] | inhibition of transcription and replication of rY40F-WSN virus [15] | other results |
| --- | --- | --- | --- | --- | --- | --- | --- | --- | --- | --- | --- | --- | --- | --- | --- | --- | --- | --- | --- |
| CC(C)(C)c1ccc(C(=O)Nc2ccc(NC(=O)c3ccc(C(C)(C)C)cc3)cc2)cc1 [S119, N,N′-(1,4-Phenylene)bis(4-(tert-butyl)benzamide)] | 0.02 µM | 27.4 µM | > 50 µM | > 50 µM | > 50 µM | > 50 µM | > 50 µM | > 50 µM | > 50 µM | > 50 µM | > 50 µM | low molecular weight band is completely lost | low molecular weight NP band is lost | shift to smaller oligomers | distinct loss | NP translocation to the nucleus was delayed | not until the 24 h post-infection time point | completely resistant | reduction in WSN viral titers (influenza A/WSN/33 virus [1]): 4 log; IC50 (influenza A/WSN/33 virus [2]): 0.06 µM; reduction in infectious titer [3]: 77%; activity against strain [4]: ineffective; activity against strain [6]: ineffective; activity against strain [7]: ineffective; antiviral activity on screened strain [8]: no detectable antiviral activity; antiviral activity on screened strain [9]: no detectable antiviral activity; effect on viral titer when added at 6 h after infection (influenza A/WSN/33 virus [10]): 1 log; virus inhibition when added 4 h after infection (influenza A/WSN/33 virus [10]): significant virus inhibition; virus inhibition when added before infection and up to 2 h after infection (influenza A/WSN/33 virus [10]): maximally inhibit; NP protein levels [14]: moderately reduced; NS1 protein expression [14]: unaffected; mRNA expression from the NP segment [14]: severely reduced; mRNA expression from the NS segment [14]: slightly reduced; mRNA expression from the PB2 segment [14]: reduced to undetectable levels; vRNA from any segment [14]: could not be detected; Cytotoxicity (A549 cells; A549 cells, concentrations as high as 500 μM): very little toxicity |
| CC(C)(C)c1ccc(NC(=O)c2ccc(C(C)(C)C)cc2)cc1 [S119-2, 4-(tert-butyl)-N-(4-(tert-butyl)phenyl)benzamide] | – | – | – | – | – | – | – | – | – | 13.9 µM | 44.5 µM | – | – | – | – | – | – | – | – |
| CC(C)(C)c1ccc(C(=O)Nc2ccc(Oc3ccccc3)cc2)cc1 [S119-3, 4-(tert-butyl)-N-(4-phenoxyphenyl)benzamide] | – | – | – | – | – | – | – | – | – | 11.4 µM | 17.4 µM | – | – | – | – | – | – | – | – |
| CC(C)(C)c1ccc(C(=O)Nc2cccc(NC(=O)c3ccc(C(C)(C)C)cc3)c2)cc1 [S119-6, N,N′-(1,3-phenylene)bis(4-(tert-butyl)benzamide)] | – | – | – | – | – | – | – | – | – | > 50 µM | > 50 µM | – | – | – | – | – | – | – | – |
| CC(C)(C)c1ccc(C(=O)Nc2ccc(Nc3ccccc3)cc2)cc1 [S119-8, 4-(tert-butyl)-N-(4-(phenylamino)-phenyl)benzamide] | 1.43 µM | 5.32 µM | 6.05 µM | 6.68 µM | 6.43 µM | 11.5 µM | 7.94 µM | 2.08 µM | 15.2 µM | 6.05 µM | 8.42 µM | – | – | – | – | – | – | – | combination index (PR8-GFP virus): 0.79 and 0.57; type of interaction (PR8-GFP virus): synergistic; also recorded: additive to slightly synergistic; inhibition of VSV [16]: did not inhibit; also recorded: does not inhibit; CC50 (A549 cells; human): 40.7 µM; CC50 (in vitro [17]; CC50): > 50 µM; CC50 (in vitro [17]; CC50 (50% cytotoxic concentration)): 66.1 µM; CC50 (in vitro [18]): > 50 µM |
| Cc1onc(-c2ccccc2)c1C(=O)N1CCN(c2ccc([N+](=O)[O-])cc2Cl)CC1 [nucleozin, reference compound] | – | – | – | – | – | – | – | – | – | – | – | oligomer ladder becomes a smear | low molecular weight NP band is lost | shift to smaller oligomers | distinct loss | NP remains exclusively in the cytoplasm | visible aggregates by 4 h post-infection | efficient inhibition | mRNA, vRNA and viral protein expression from PB2, NP and NS segments [14]: complete loss |
